# Test results as given in PubChem BioAssay (NCI).
#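 48-hour exposure; five concentrations; linearly interpolated endpoints. TGI: concentration producing complete growth inhibition.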
# Tests used:
# Assay in all cases: inhibition of tumour cell growth, NCI panel, 48 h
# 786-0 renal = test system: 786-0 renal
# A498 renal = test system: A498 renal
# A549 NSCLC = test system: A549 NSCLC
# ACHN renal = test system: ACHN renal
# BT-549 breast = test system: BT-549 breast
# CAKI-1 renal = test system: CAKI-1 renal
# CCRF-CEM leukemia = test system: CCRF-CEM leukemia
# COLO 205 colon = test system: COLO 205 colon
# DU-145 prostate = test system: DU-145 prostate
# EKVX NSCLC = test system: EKVX NSCLC
# HCC-2998 colon = test system: HCC-2998 colon
# HCT-116 colon = test system: HCT-116 colon
# HCT-15 colon = test system: HCT-15 colon
# HL-60(TB) leukemia = test system: HL-60(TB) leukemia
# HOP-62 NSCLC = test system: HOP-62 NSCLC
# HOP-92 NSCLC = test system: HOP-92 NSCLC
# HS 578T breast = test system: HS 578T breast
# HT29 colon = test system: HT29 colon
# IGROV1 ovarian = test system: IGROV1 ovarian
# K-562 leukemia = test system: K-562 leukemia
# KM12 colon = test system: KM12 colon
# LOX IMVI melanoma = test system: LOX IMVI melanoma
# M14 melanoma = test system: M14 melanoma
# MALME-3M melanoma = test system: MALME-3M melanoma
# MCF7 breast = test system: MCF7 breast
# MDA-MB-231 breast = test system: MDA-MB-231 breast
# MDA-MB-435 = test system: MDA-MB-435
# MDA-N = test system: MDA-N
# MOLT-4 leukemia = test system: MOLT-4 leukemia
# NCI-H226 lung = test system: NCI-H226 lung
# NCI-H23 lung = test system: NCI-H23 lung
# NCI-H460 lung = test system: NCI-H460 lung
# NCI-H522 lung = test system: NCI-H522 lung
# NCI/ADR-RES ovarian = test system: NCI/ADR-RES ovarian
# OVCAR-3 ovarian = test system: OVCAR-3 ovarian
# OVCAR-4 ovarian = test system: OVCAR-4 ovarian
# OVCAR-5 ovarian = test system: OVCAR-5 ovarian
# OVCAR-8 ovarian = test system: OVCAR-8 ovarian
# PC-3 prostate = test system: PC-3 prostate
# RPMI-8226 leukemia = test system: RPMI-8226 leukemia
# RXF 393 renal = test system: RXF 393 renal
# SF-268 CNS = test system: SF-268 CNS
# SF-295 CNS = test system: SF-295 CNS
# SF-539 CNS = test system: SF-539 CNS
# SK-MEL-2 melanoma = test system: SK-MEL-2 melanoma
# SK-MEL-28 melanoma = test system: SK-MEL-28 melanoma
# SK-MEL-5 melanoma = test system: SK-MEL-5 melanoma
# SK-OV-3 ovarian = test system: SK-OV-3 ovarian
# SN12C renal = test system: SN12C renal
# SNB-19 CNS = test system: SNB-19 CNS
# SR leukemia = test system: SR leukemia
# SW-620 colon = test system: SW-620 colon
# T-47D breast = test system: T-47D breast
# TK-10 renal = test system: TK-10 renal
# U251 CNS = test system: U251 CNS
# UACC-257 melanoma = test system: UACC-257 melanoma
# UACC-62 melanoma = test system: UACC-62 melanoma
# UO-31 renal = test system: UO-31 renal
# DLD-1 colon = test system: DLD-1 colon
# DMS 114 small cell lung = test system: DMS 114 small cell lung
# DMS 273 small cell lung = test system: DMS 273 small cell lung
# HOP-18 NSCLC = test system: HOP-18 NSCLC
# KM20L2 colon = test system: KM20L2 colon
# LXFL 529 NSCLC = test system: LXFL 529 NSCLC
# M19-MEL melanoma = test system: M19-MEL melanoma
# SNB-75 CNS = test system: SNB-75 CNS
# SNB-78 CNS = test system: SNB-78 CNS
compound,measurement,setting,value
COc1ccc2c(c1)CC[C@@H]1C2CC[C@]2(C)OC(=O)CCC12 (some centres undefined),TGI,786-0 renal,17.7 µM
same,TGI,A498 renal,> 100 µM
same,TGI,A549 NSCLC,> 100 µM
same,TGI,ACHN renal,> 100 µM
same,TGI,BT-549 breast,23.6 µM
same,TGI,CAKI-1 renal,> 100 µM
same,TGI,CCRF-CEM leukemia,> 100 µM
same,TGI,COLO 205 colon,> 100 µM
same,TGI,DU-145 prostate,> 100 µM
same,TGI,EKVX NSCLC,21.3 µM
same,TGI,HCC-2998 colon,> 100 µM
same,TGI,HCT-116 colon,21.6 µM
same,TGI,HCT-15 colon,> 100 µM
same,TGI,HL-60(TB) leukemia,> 100 µM
same,TGI,HOP-62 NSCLC,65.3 µM
same,TGI,HOP-92 NSCLC,40.6 µM
same,TGI,HS 578T breast,60.6 µM
same,TGI,HT29 colon,59.2 µM
same,TGI,IGROV1 ovarian,> 100 µM
same,TGI,K-562 leukemia,> 100 µM
same,TGI,KM12 colon,> 100 µM
same,TGI,LOX IMVI melanoma,19.4 µM
same,TGI,M14 melanoma,36 µM
same,TGI,MALME-3M melanoma,36 µM
same,TGI,MCF7 breast,35.2 µM
same,TGI,MDA-MB-231 breast,11.5 µM
same,TGI,MDA-MB-435,> 100 µM
same,TGI,MDA-N,62.1 µM
same,TGI,MOLT-4 leukemia,> 100 µM
same,TGI,NCI-H226 lung,36.7 µM
same,TGI,NCI-H23 lung,38.4 µM
same,TGI,NCI-H460 lung,> 100 µM
same,TGI,NCI-H522 lung,19.4 µM
same,TGI,NCI/ADR-RES ovarian,33.4 µM
same,TGI,OVCAR-3 ovarian,31.4 µM
same,TGI,OVCAR-4 ovarian,28.1 µM
same,TGI,OVCAR-5 ovarian,30.9 µM
same,TGI,OVCAR-8 ovarian,28.4 µM
same,TGI,PC-3 prostate,61.1 µM
same,TGI,RPMI-8226 leukemia,> 100 µM
same,TGI,RXF 393 renal,29 µM
same,TGI,SF-268 CNS,26.6 µM
same,TGI,SF-295 CNS,46.1 µM
same,TGI,SF-539 CNS,30.4 µM
same,TGI,SK-MEL-2 melanoma,66.5 µM
same,TGI,SK-MEL-28 melanoma,34.3 µM
same,TGI,SK-MEL-5 melanoma,29.5 µM
same,TGI,SK-OV-3 ovarian,> 100 µM
same,TGI,SN12C renal,29.1 µM
same,TGI,SNB-19 CNS,38.2 µM
same,TGI,SR leukemia,> 100 µM
same,TGI,SW-620 colon,24.3 µM
same,TGI,T-47D breast,> 100 µM
same,TGI,TK-10 renal,97.8 µM
same,TGI,U251 CNS,21 µM
same,TGI,UACC-257 melanoma,32.1 µM
same,TGI,UACC-62 melanoma,> 100 µM
same,TGI,UO-31 renal,48.5 µM
Cc1cccc(C)c1NC(=O)C(=O)C1C(=O)N(c2ccccc2)N=C1N (centres undefined),TGI,786-0 renal,> 100 µM
same,TGI,A498 renal,> 100 µM
same,TGI,A549 NSCLC,> 100 µM
same,TGI,ACHN renal,> 100 µM
same,TGI,CAKI-1 renal,> 100 µM
same,TGI,CCRF-CEM leukemia,> 100 µM
same,TGI,COLO 205 colon,> 100 µM
same,TGI,DLD-1 colon,> 100 µM
same,TGI,DMS 114 small cell lung,> 100 µM
same,TGI,DMS 273 small cell lung,> 100 µM
same,TGI,EKVX NSCLC,> 100 µM
same,TGI,HCC-2998 colon,> 100 µM
same,TGI,HCT-116 colon,> 100 µM
same,TGI,HCT-15 colon,> 100 µM
same,TGI,HL-60(TB) leukemia,> 100 µM
same,TGI,HOP-18 NSCLC,> 100 µM
same,TGI,HOP-62 NSCLC,> 100 µM
same,TGI,HOP-92 NSCLC,> 100 µM
same,TGI,HT29 colon,> 100 µM
same,TGI,IGROV1 ovarian,> 100 µM
same,TGI,K-562 leukemia,> 100 µM
same,TGI,KM12 colon,> 100 µM
same,TGI,KM20L2 colon,> 100 µM
same,TGI,LOX IMVI melanoma,> 100 µM
same,TGI,LXFL 529 NSCLC,> 100 µM
same,TGI,M14 melanoma,> 100 µM
same,TGI,M19-MEL melanoma,> 100 µM
same,TGI,MALME-3M melanoma,> 100 µM
same,TGI,MOLT-4 leukemia,> 100 µM
same,TGI,NCI-H226 lung,> 100 µM
same,TGI,NCI-H23 lung,> 100 µM
same,TGI,NCI-H460 lung,> 100 µM
same,TGI,NCI-H522 lung,> 100 µM
same,TGI,OVCAR-3 ovarian,> 100 µM
same,TGI,OVCAR-4 ovarian,> 100 µM
same,TGI,OVCAR-5 ovarian,> 100 µM
same,TGI,OVCAR-8 ovarian,> 100 µM
same,TGI,RPMI-8226 leukemia,> 100 µM
same,TGI,RXF 393 renal,> 100 µM
same,TGI,SF-268 CNS,> 100 µM
same,TGI,SF-295 CNS,> 100 µM
same,TGI,SF-539 CNS,> 100 µM
same,TGI,SK-MEL-2 melanoma,> 100 µM
same,TGI,SK-MEL-28 melanoma,> 100 µM
same,TGI,SK-MEL-5 melanoma,> 100 µM
same,TGI,SK-OV-3 ovarian,> 100 µM
same,TGI,SN12C renal,> 100 µM
same,TGI,SNB-19 CNS,> 100 µM
same,TGI,SNB-75 CNS,> 100 µM
same,TGI,SNB-78 CNS,> 100 µM
same,TGI,SR leukemia,> 100 µM
same,TGI,SW-620 colon,> 100 µM
same,TGI,TK-10 renal,> 100 µM
same,TGI,U251 CNS,> 100 µM
same,TGI,UACC-257 melanoma,> 100 µM
same,TGI,UACC-62 melanoma,> 100 µM
same,TGI,UO-31 renal,> 100 µM
C=C(C)C1CC2=C(C(=O)OC)C=C(O2)C(C(=C)C)[C@@H]2OC(=O)/C(=C\C1O)[C@H]2N(C)C (some centres undefined),TGI,786-0 renal,21 µM
same,TGI,A498 renal,31.3 µM
same,TGI,A549 NSCLC,30.8 µM
same,TGI,ACHN renal,24 µM
same,TGI,BT-549 breast,24.3 µM
same,TGI,CAKI-1 renal,21.2 µM
same,TGI,CCRF-CEM leukemia,5.4 µM
same,TGI,COLO 205 colon,29 µM
same,TGI,DU-145 prostate,24.8 µM
same,TGI,EKVX NSCLC,29 µM
same,TGI,HCC-2998 colon,29 µM
same,TGI,HCT-116 colon,27.7 µM
same,TGI,HCT-15 colon,22.5 µM
same,TGI,HL-60(TB) leukemia,> 24.2 µM
same,TGI,HOP-62 NSCLC,34.2 µM
same,TGI,HOP-92 NSCLC,20.2 µM
same,TGI,HS 578T breast,44.2 µM
same,TGI,HT29 colon,> 100 µM
same,TGI,IGROV1 ovarian,20.9 µM
same,TGI,K-562 leukemia,> 100 µM
same,TGI,KM12 colon,28 µM
same,TGI,LOX IMVI melanoma,24.2 µM
same,TGI,M14 melanoma,29.7 µM
same,TGI,MALME-3M melanoma,34.5 µM
same,TGI,MCF7 breast,24.9 µM
same,TGI,MDA-MB-231 breast,43.8 µM
same,TGI,MDA-MB-435,25 µM
same,TGI,MDA-N,25.8 µM
same,TGI,MOLT-4 leukemia,> 22.7 µM
same,TGI,NCI-H226 lung,21.7 µM
same,TGI,NCI-H23 lung,28.8 µM
same,TGI,NCI-H460 lung,31.4 µM
same,TGI,NCI-H522 lung,10.3 µM
same,TGI,NCI/ADR-RES ovarian,26 µM
same,TGI,OVCAR-3 ovarian,25.7 µM
same,TGI,OVCAR-4 ovarian,21 µM
same,TGI,OVCAR-5 ovarian,38 µM
same,TGI,OVCAR-8 ovarian,25.8 µM
same,TGI,PC-3 prostate,24.5 µM
same,TGI,RPMI-8226 leukemia,14.9 µM
same,TGI,RXF 393 renal,15.7 µM
same,TGI,SF-268 CNS,32.9 µM
same,TGI,SF-295 CNS,32 µM
same,TGI,SF-539 CNS,22.9 µM
same,TGI,SK-MEL-2 melanoma,26.7 µM
same,TGI,SK-MEL-28 melanoma,27.8 µM
same,TGI,SK-MEL-5 melanoma,27.9 µM
same,TGI,SK-OV-3 ovarian,64.1 µM
same,TGI,SN12C renal,28.5 µM
same,TGI,SNB-19 CNS,50.9 µM
same,TGI,SNB-75 CNS,30.4 µM
same,TGI,SR leukemia,> 41.2 µM
same,TGI,SW-620 colon,30.3 µM
same,TGI,T-47D breast,45.9 µM
same,TGI,TK-10 renal,15.7 µM
same,TGI,U251 CNS,33 µM
same,TGI,UACC-257 melanoma,37.1 µM
same,TGI,UACC-62 melanoma,28.3 µM
same,TGI,UO-31 renal,26.4 µM
